The test system of assay [1] is Pythium ultimum strain MAFF425494. Put plainly: Control of Pythium soil-borne disease in cucumber by a Pseudomonas bacterium combined with an amino acid. In kind it is in vivo. Particulars: for effect on disease control ability of the Pseudomonas bacterium, averaged cucumber weight (FIG. 2): 10 mM amino acid combined with Pseudomonas protegens strain CHA0, n=12 per group. As for the experimental part: The disease control abilities of a Pseudomonas bacterium and glutamic acid against an infectious disease caused by a Pythium (Pythium ultimum strain MAFF425494) as a soil pathogen were investigated using cucumber as a test plant.
(§1) Cucumber seeds were placed on a filter paper moistened with sterile water and left in darkness at 26° C. for 24 hours. Pseudomonas protegens strain CHA0 was used as a Pseudomonas bacterium and incubated with shaking in NYB medium (nutrient broth 25 g, yeast extract 5 g, H2O 1000 mL) under the conditions of 30° C. and 180 rpm for 24 hours. The broth culture of the Pseudomonas bacterium was centrifuged to remove supernatants, and the precipitate was suspended in sterile water to OD600=0.1.
Vermiculite was moistened by adding water. To the vermiculite, coarse cereal crops (millet) previously infected with a Pythium were added as they were, and mixing was done well. 7 g of the coarse cereal crops infected with a Pythium was added to 1 L of the vermiculite. Some portion of the vermiculite was left without adding the coarse cereal crops infected with a Pythium.
(§2) 50 mL of each prepared vermiculite was equally divided into sections (each 5 cm square and 5 cm deep) of a seedling tray with drainage holes at the bottom for water to drain out. Two grains of cucumber seeds observed to have germinated were seeded on each divided vermiculite.
The Pseudomonas bacterium and glutamic acid were applied to cucumber seeds and soils in their vicinity. To be specific, for each section of the seedling tray, 4 mL of the adjusted solution of the Pseudomonas bacterium was applied to cucumber seeds, and 15 mL of the vermiculite left without being infected with a Pythium was placed over the cucumber seeds. The seedling tray was soaked in water or an aqueous solution of 10 mM glutamic acid (L-glutamic acid) (10 mL per seedling tray section) contained in a vat. The applications of the Pseudomonas bacterium and glutamic acid were carried out within 2 hours after the seeding of cucumber seeds. The interval between the timings of applications of the Pseudomonas bacterium and glutamic acid was ensured to be not exceeding 1 hour.
The seedling tray was kept in a plant incubator set at 25° C. The light and dark periods were set to 16 and 8 hours, respectively. The cultivation period in the incubator was set to 2 weeks. Replacement of water or an aqueous solution of 10 mM glutamic acid in a vat was done every other day.
By using the same procedure as in Example 1, the effectiveness of combined use of the Pseudomonas bacterium with each of glutamic acid and histidine was investigated.
For application of histidine, an aqueous solution of 10 mM histidine (L-histidine) was prepared and used instead of the aqueous solution of glutamic acid used in Example 1. The number of cucumbers cultivated was n=12 for each group. After 2 weeks of cultivation, the weights of cucumbers were measured and averaged. Upon measurement of the weights of cucumbers, it was ensured that the vermiculite remaining on the roots of cucumbers was washed away carefully.
The effects of combined use of a Pseudomonas bacterium with other amino acids than histidine were investigated. In this example, not only glutamic acid (Glu), but also the following other amino acids: glutamine (Gln), glycine (Gly), leucine (Leu), phenylalanine (Phe), arginine (Arg), lysine (Lys), valine (Val), isoleucine (Ile) and tryptophane (Trp), were evaluated by using the same procedure as in Example 1. For each of these amino acids, an aqueous solution of 10 mM amino acid was prepared and used. In this example, Pseudomonas protegens strain Cab57 was used as a Pseudomonas bacterium, and all amino acids used were of the L-form.
The number of cucumbers cultivated in this example was n=12 to 18 for each group. As in Example 2, after 2 weeks of cultivation, the weights of cucumbers were measured and averaged. […]

Assay [2] has as its system Rhizoctonia solani strain MAFF726551. Put plainly: Control of Rhizoctonia soil-borne disease in cucumber by a Pseudomonas bacterium combined with glutamic acid. Type of assay: in vivo. Particulars: 10 mM glutamic acid combined with Pseudomonas protegens strain Cab57, 5 days cultivation, n=8 to 12. As for the experimental part: as §1, §2
The Pseudomonas bacterium and glutamic acid were applied to cucumber seeds and soils in their vicinity. […]
In this example, by using the same procedure as in Example 1, 1 g of coarse cereal crops infected with the Rhizoctonia was added to 1 L of vermiculite, instead of 7 g of coarse cereal crops infected with a Pythium. […] As in Example 3, for each of the averaged values of the cucumber weights after cultivation calculated for the different groups, a relative value was determined with respect to the averaged value for the group treated with the Pseudomonas bacterium alone, which was taken as 1.

Consider `N[C@@H](CCC(=O)O)C(=O)O` [glutamic acid, L-glutamic acid], for which the “effect of combined use on the soil-borne disease control ability of the Pseudomonas bacterium (photograph, FIG. 1)” value in assay [1] (cucumber germinated seeds in vermiculite, 10 mM L-glutamic acid combined with Pseudomonas protegens strain CHA0, 2 weeks cultivation) is “enhanced the soil-borne disease control ability of the Pseudomonas bacterium”. Besides, the “effect on disease control ability of the Pseudomonas bacterium, cucumber weight relative to bacterium alone = 1 (FIG. 3)” value in assay [1] (cucumber, 10 mM L-amino acid combined with Pseudomonas protegens strain Cab57, 2 weeks, n=12 to 18) is “exhibited a similar effect even on a different strain of Pseudomonas bacterium”. The “soil-borne disease control ability of glutamic acid itself (FIG. 1)” value in assay [1] (cucumber, 10 mM L-glutamic acid alone, no Pseudomonas bacterium, 2 weeks cultivation) is on record as “seemed not to have a high soil-borne disease control ability”. For the same molecule, the “effect on disease control ability of the Pseudomonas bacterium, averaged cucumber weight (FIG. 2)” value in assay [1] (cucumber, 2 weeks) is reported as “enhanced the disease control ability of the bacterium”. Also, in assay [1] (cucumber, 10 mM glutamic acid combined with Pseudomonas sp. strain Os17, 2 weeks, n=17), the “effect on disease control ability of the Pseudomonas bacterium, cucumber weight relative to bacterium alone = 1 (FIG. 4)” value was “exhibited a similar effect”. In addition, the “effect on soil-borne disease control ability of the Pseudomonas bacterium, cucumber weight relative to bacterium alone = 1 (FIG. 5)” value in assay [2] is “exhibited similar enhancement of soil-borne disease control ability”.

Consider `N[C@@H](Cc1c[nH]cn1)C(=O)O` [histidine, L-histidine, reference compound], for which the “effect on disease control ability of the Pseudomonas bacterium, averaged cucumber weight (FIG. 2)” value in assay [1] (cucumber, 2 weeks) is recorded as “did not have a capability of enhancing the disease control ability of the Pseudomonas bacterium”.

(Values after patent US20210161149A1, “METHOD OF CONTROLLING SOIL-BORNE DISEASES OF PLANTS” (NATIONAL AGRICULTURE AND FOOD RESEARCH ORGANIZATION, priority 2018, published 2021).)
